Data on 38 compounds can be found in patent US10124004B2, “Pyrido[3,4-d]pyrimidine derivative and pharmaceutically acceptable salt thereof” (Teijin Pharma Limited, priority 2015, dated 2018).

One test deals with T1, CDK4/cyclin D3 (Homo sapiens, UniProt P11802).
T1 construct: purchased Carna Biosciences, Inc. QS S Assist CDK4/Cyclin D3_FP Kit
The test is described as follows: Human CDK4/cyclin D3 inhibitory activity (QS S Assist CDK4/Cyclin D3_FP Kit, IMAP fluorescence polarization). It is filed as biochemical. In short, it runs like this:
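IMAP fluorescence polarization kit: CDK4/cyclin D3 at 12.5-25 ng/well with kit ATP/substrate/metal mix in 20 mM HEPES pH 7.4, 0.01% Tween20, 2 mM DTT, 45 min at room temperature. FP read at 485/535 nm after 30 min binding; IC50 from dose-response fit of percent inhibition versus enzyme and no-enzyme controls.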
A general note: Fluorescence polarisation rises when a labelled molecule tumbles more slowly, as on binding a larger partner.

In a further test the target is T2, CDK2/cyclin A2 (Homo sapiens, UniProt P24941).
T2 construct: purchased Carna Biosciences, Inc. QS S Assist CDK2/Cyclin A2_FP Kit
The test is described as follows: Human CDK2/cyclin A2 inhibitory activity (QS S Assist CDK2/Cyclin A2_FP Kit, IMAP fluorescence polarization). The class given is biochemical. In short, it runs like this: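 Kinase activity read as fluorescence polarization (485/535 nm) after phosphorylated fluorescent substrate binds IMAP reagent (30 min, RT, dark). Enzyme (2.5 ng/well) reacted 60 min at RT with ATP/substrate/metal in HEPES pH 7.4 buffer with Tween 20 and DTT; no-enzyme wells define 0% activity; IC50 by curve fit.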

[1] abbreviates: Human CDK4/cyclin D3 inhibitory activity, read-out: CDK4 Activity symbol.
Setting [2] is: Human CDK2/cyclin A2 inhibitory activity, read-out: CDK2 Activity symbol.
The mark [3] stands for this setting: 50% inhibitory concentration against CDK4/cyclin D3, given as class symbol.
Where [4] appears, read: 50% inhibitory concentration against CDK2/cyclin A2, given as class symbol.

Molecules are shown by their SMILES. Like-named read-outs stand apart in the source and are kept apart here. A value given as a limit tells only on which side of the number the result lay.

T1 sequence (P11802 whole entry): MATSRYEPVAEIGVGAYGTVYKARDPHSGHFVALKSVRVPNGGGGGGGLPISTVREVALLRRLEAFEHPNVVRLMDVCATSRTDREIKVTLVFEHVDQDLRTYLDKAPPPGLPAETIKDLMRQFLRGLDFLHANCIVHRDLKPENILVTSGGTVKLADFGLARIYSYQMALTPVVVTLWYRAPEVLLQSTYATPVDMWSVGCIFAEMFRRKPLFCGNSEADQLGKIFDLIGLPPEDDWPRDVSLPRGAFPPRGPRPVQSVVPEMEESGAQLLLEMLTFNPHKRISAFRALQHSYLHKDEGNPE
T1 sequence (P30281 whole entry partner): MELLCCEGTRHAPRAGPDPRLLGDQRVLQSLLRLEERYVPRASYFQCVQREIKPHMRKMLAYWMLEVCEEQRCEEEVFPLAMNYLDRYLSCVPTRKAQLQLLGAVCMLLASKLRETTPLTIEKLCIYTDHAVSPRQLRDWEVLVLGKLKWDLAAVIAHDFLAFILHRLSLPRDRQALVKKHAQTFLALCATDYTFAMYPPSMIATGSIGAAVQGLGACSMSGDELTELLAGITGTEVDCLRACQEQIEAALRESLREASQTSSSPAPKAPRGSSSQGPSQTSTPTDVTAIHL

As to `FC(F)c1cc2cnc(Nc3ccc(N4CCNCC4)cn3)nc2c(NC2COC2)n1` [Compound 33], the IC50 on CDK4/cyclin D3 (setting [1]) and on CDK2/cyclin A2 (setting [2]) was at least 100 nM throughout.

Regarding `C[C@@H](O)c1cc2cnc(Nc3ccc(CN4CCN(CCO)CC4)cn3)nc2c(NCCCF)n1` [Compound 1074], the IC50 on CDK4/cyclin D3 (setting [3]) was under 10 nM; against CDK2/cyclin A2 (setting [4]) it was at least 100 nM.

Turning to `CC(C)Nc1nc([C@@H](C)O)cc2cnc(Nc3ccc(N4CCN(CC#N)CC4)nn3)nc12` [Compound 901], the IC50 at CDK4/cyclin D3 (setting [3]) was under 10 nM; at CDK2/cyclin A2 (setting [4]), at least 100 nM.

For the compound `CC(C)Nc1nc(C(F)F)cc2cnc(Nc3ccc(NC(=O)CCO)cn3)nc12` [Compound 98], the IC50 on CDK4/cyclin D3 (setting [1]) and on CDK2/cyclin A2 (setting [2]) was at least 100 nM in each case.

Regarding `CO[C@H](C)c1cc2cnc(Nc3ccc(OC4CCNCC4)cn3)nc2c(NC(C)C)n1` [Compound 289], the IC50 is under 10 nM on CDK4/cyclin D3 (setting [1]) and at least 100 nM on CDK2/cyclin A2 (setting [2]).

Take `COCC(C)(C)Nc1nc([C@@H](C)O)cc2cnc(Nc3ccc(CN4CCC(C(=O)O)CC4)cn3)nc12` [Compound 197]: the IC50 was 10 to 100 nM on CDK4/cyclin D3 (setting [1]) and at least 100 nM at CDK2/cyclin A2 (setting [2]).

`CC(C)Nc1nc([C@@H](C)O)cc2cnc(Nc3ccc(CN4CCN(C)CC4)cn3)nc12` [Compound 548]: the values for the IC50 on CDK4/cyclin D3 (setting [1]) and at CDK2/cyclin A2 (setting [2]) were under 10 nM and at least 100 nM, respectively.

Turning to `CC(=O)c1nc(NC(C)C)c2nc(Nc3ccc(N4CCNCC4)cn3)ncc2c1C` [Compound 68], the IC50 at CDK4/cyclin D3 (setting [1]) was under 10 nM; at CDK2/cyclin A2 (setting [2]), at least 100 nM.

For the compound `CC(C)Nc1nc([C@@H](C)O)cc2cnc(Nc3ccc(C(=O)N4CCN(CCO)CC4)cn3)nc12` [Compound 1165], the figures for the IC50 against CDK4/cyclin D3 (setting [3]) and at CDK2/cyclin A2 (setting [4]) were under 10 nM and 10 to 100 nM, respectively.

As for `CO[C@H](C)c1cc2cnc(Nc3ccc(N4CCNCC4)nn3)nc2c(NCCCF)n1` [Compound 1226], the results for the IC50 against CDK4/cyclin D3 (setting [3]) and on CDK2/cyclin A2 (setting [4]) were under 10 nM and at least 100 nM, respectively.

In the case of `CC(C)Nc1nc([C@@H](C)O)cc2cnc(Nc3ccc(Cn4cncn4)cn3)nc12` [Compound 949], the IC50 against CDK4/cyclin D3 (setting [3]) was under 10 nM; against CDK2/cyclin A2 (setting [4]), at least 100 nM.

Regarding `CCNc1nc(C(F)F)cc2cnc(Nc3ccc(N4CCNCC4=O)cn3)nc12` [Compound 820], the values for the IC50 at CDK4/cyclin D3 (setting [3]) and against CDK2/cyclin A2 (setting [4]) were under 10 nM and 10 to 100 nM, respectively.

Turning to `CC(C)Nc1nc([C@@H](C)O)cc2cnc(Nc3ccc(N4CCN(C[C@H](C)O)CC4)nn3)nc12` [Compound 676, (S)-1-(4-(6-((6-((R)-1-hydroxyethyl)-8-(isopropylamino)pyrido[3,4-d]pyrimidin-2-yl)amino)pyridazin-3-yl)piperazin-1-yl)propan-2-ol], the IC50 against CDK4/cyclin D3 (setting [3]) was under 10 nM; on CDK2/cyclin A2 (setting [4]), at least 100 nM.

`C[C@@H](O)c1cc2cnc(Nc3ccc(CN4CCN(CCO)CC4)cn3)nc2c(NC2(C)CC2)n1` [Compound 1201]: the IC50 was under 10 nM against CDK4/cyclin D3 (setting [3]) and at least 100 nM against CDK2/cyclin A2 (setting [4]).

Take `CC(C)Nc1nc(C(F)F)cc2cnc(Nc3ccc(N4CCNC(=O)C4)cn3)nc12` [Compound 83]: the IC50 on CDK4/cyclin D3 (setting [1]) was under 10 nM; on CDK2/cyclin A2 (setting [2]), 10 to 100 nM.

Turning to `CC(C)Nc1nc(C(F)F)cc2cnc(Nc3ccc(CN4CCCC(O)C4)cn3)nc12` (stereo not shown) [Compound 128], the results for the IC50 at CDK4/cyclin D3 (setting [1]) and at CDK2/cyclin A2 (setting [2]) were under 10 nM and 10 to 100 nM, respectively.

Consider `CCCNc1nc([C@@H](C)O)cc2cnc(Nc3ccc(N4CCC(N(C)C)CC4)nn3)nc12` [Compound 1159], for which the IC50 at CDK4/cyclin D3 (setting [3]) was under 10 nM; against CDK2/cyclin A2 (setting [4]), at least 100 nM.

As to `CO[C@H](C)c1cc2cnc(Nc3ccc(N4CCN(CC(N)=O)CC4)nn3)nc2c(NC(C)C)n1` [Compound 908], the IC50 was under 10 nM against CDK4/cyclin D3 (setting [3]) and at least 100 nM at CDK2/cyclin A2 (setting [4]).

For `CC(=O)c1cc2cnc(Nc3ccc(N4CCNCCC4=O)cn3)nc2c(NC(C)C)n1` [Compound 1029], the IC50 is under 10 nM against CDK4/cyclin D3 (setting [3]) and at least 100 nM on CDK2/cyclin A2 (setting [4]).

As to `CC(C)Nc1nc(C(F)F)c(Cl)c2cnc(Nc3ccc(N4CCNCC4=O)cn3)nc12` [Compound 850], the IC50 against CDK4/cyclin D3 (setting [3]) and at CDK2/cyclin A2 (setting [4]) was 10 to 100 nM throughout.

With `CC(C)Nc1nc(C(F)F)cc2cnc(Nc3ccc(CCC(=O)O)cn3)nc12` [Compound 111], the IC50 at CDK4/cyclin D3 (setting [1]) is 10 to 100 nM; at CDK2/cyclin A2 (setting [2]), at least 100 nM.

Consider `CO[C@H](C)c1cc2cnc(Nc3ccc4c(n3)CCN(CCO)C4)nc2c(N[C@H]2CCCOC2)n1` [Compound 1121], for which the values for the IC50 at CDK4/cyclin D3 (setting [3]) and against CDK2/cyclin A2 (setting [4]) were under 10 nM and at least 100 nM, respectively.

As to `CC(C)Nc1nc([C@@H](C)O)cc2cnc(Nc3ccc(N4CC5(CCNC5)C4)nn3)nc12` [Compound 574], the IC50 is under 10 nM at CDK4/cyclin D3 (setting [1]) and at least 100 nM at CDK2/cyclin A2 (setting [2]).

`CCC(O)c1cc2cnc(Nc3ccc(N4CCNCC4)cn3)nc2c(NC(C)C)n1` (stereo not shown) [Compound 1034]: the figures for the IC50 at CDK4/cyclin D3 (setting [3]) and on CDK2/cyclin A2 (setting [4]) were under 10 nM and at least 100 nM, respectively.

With `O=C(O)C1CCN(Cc2ccc(Nc3ncc4cc(C(F)F)nc(N[C@H]5CCCOC5)c4n3)nc2)CC1` [Compound 806], the IC50 against CDK4/cyclin D3 (setting [3]) was under 10 nM; against CDK2/cyclin A2 (setting [4]), at least 100 nM.

For the compound `C[C@@H](O)c1cc2cnc(Nc3ccc(N4CCNCC4)nn3)nc2c(NCC2CCOC2)n1` (stereo partly shown) [Compound 284], the values for the IC50 on CDK4/cyclin D3 (setting [1]) and on CDK2/cyclin A2 (setting [2]) were under 10 nM and at least 100 nM, respectively.

Take `CC(C)Nc1nc([C@@H](C)O)cc2cnc(Nc3ccc(CN4CCN(C(C)C)CC4)cn3)nc12` [Compound 633]: the results for the IC50 on CDK4/cyclin D3 (setting [3]) and on CDK2/cyclin A2 (setting [4]) were under 10 nM and at least 100 nM, respectively.

As to `CC(O)CN1CCN(Cc2ccc(Nc3ncc4cc([C@@H](C)O)nc(NC(C)C)c4n3)nc2)CC1` (stereo partly shown) [Compound 638], the IC50 was under 10 nM on CDK4/cyclin D3 (setting [3]) and at least 100 nM against CDK2/cyclin A2 (setting [4]).

For `CC(C)Nc1nc(C2CCOC2)cc2cnc(Nc3ccc4c(n3)CCN(CCN(C)C)C4)nc12` (stereo not shown) [Compound 1230], the IC50 against CDK4/cyclin D3 (setting [3]) was under 10 nM; against CDK2/cyclin A2 (setting [4]) it was at least 100 nM.

With `CCC(OC)c1cc2cnc(Nc3ccc(CN4CCNCC4)cn3)nc2c(NC(C)C)n1` (stereo not shown) [Compound 1067], the IC50 was under 10 nM at CDK4/cyclin D3 (setting [3]) and at least 100 nM on CDK2/cyclin A2 (setting [4]).

On to `C[C@@H](O)c1cc2cnc(Nc3ccc(O[C@H]4CCNC4)cn3)nc2c(N[C@H]2CCCOC2)n1` [Compound 803], for which the IC50 at CDK4/cyclin D3 (setting [3]) was under 10 nM; on CDK2/cyclin A2 (setting [4]) it was at least 100 nM.

Take `C[C@@H](O)c1cc2cnc(Nc3ccc(N4CCNCC4)nn3)nc2c(NC(C)(C)C)n1` [Compound 791]: the IC50 was under 10 nM against CDK4/cyclin D3 (setting [3]) and 10 to 100 nM against CDK2/cyclin A2 (setting [4]).

With `CO[C@H](C)c1cc2cnc(Nc3ccc(N4CC5(CNC5)CC4=O)cn3)nc2c(NC(C)C)n1` [Compound 511], the IC50 was under 10 nM at CDK4/cyclin D3 (setting [1]) and 10 to 100 nM on CDK2/cyclin A2 (setting [2]).

Consider `CCNc1nc([C@@H](C)O)cc2cnc(Nc3ccc(CN4CCN(C(C)CO)CC4)cn3)nc12` (single isomer, unassigned) [Compound 1089], for which the IC50 against CDK4/cyclin D3 (setting [3]) was under 10 nM; against CDK2/cyclin A2 (setting [4]) it was at least 100 nM.

For `C[C@@H](O)c1cc2cnc(Nc3ccc(CN4CCC(O)CC4)cn3)nc2c(N[C@H]2CCCOC2)n1` [Compound 1126], the IC50 was under 10 nM at CDK4/cyclin D3 (setting [3]) and at least 100 nM on CDK2/cyclin A2 (setting [4]).

Consider `CCCNc1nc([C@@H](C)OC)cc2cnc(Nc3ccc(N4C[C@H]5C[C@@H]4CN5)nn3)nc12` [Compound 858], for which the IC50 was under 10 nM at CDK4/cyclin D3 (setting [3]) and at least 100 nM against CDK2/cyclin A2 (setting [4]).

On to `CNC1CC2(C1)CN(c1ccc(Nc3ncc4cc([C@@H](C)OC)nc(N[C@H]5CCCOC5)c4n3)nc1)C2` [Compound 1009], for which the IC50 against CDK4/cyclin D3 (setting [3]) is under 10 nM; against CDK2/cyclin A2 (setting [4]) it was at least 100 nM.

Turning to `CC(C)Nc1nc(C(F)F)cc2cnc(Nc3ccc(CN4CCC(C(=O)NS(C)(=O)=O)CC4)cn3)nc12` [Compound 236], the IC50 was under 10 nM on CDK4/cyclin D3 (setting [1]) and 10 to 100 nM on CDK2/cyclin A2 (setting [2]).
